In the RepoRT retention time repository (doi:10.1007/s00216-021-03828-0):

Key:
Conditions in all cases: stereoisomer not certain
[1] = RP, Merck Supelco Ascentis Express C18, 100 × 2.1 mm, 2 µm, 40 °C, 0.2 mL/min, estimated dead time 1.1 min; A: water + 0.1% formic acid, pH 3; B: acetonitrile + 0.1% formic acid, pH 3; gradient (min/%B) 0/5 2/5 17/99.9 20/99.9
[2] = as above; remark: listed apart in the source
[3] = RP, Merck Supelco Ascentis Express C18, 100 × 2.1 mm, 2 µm, 40 °C, 0.4 mL/min, estimated dead time 0.55 min; A: water + 0.1% formic acid, pH 3; B: acetonitrile + 0.1% formic acid, pH 3; gradient (min/%B) 0/5 2/5 17/99.9 20/99.9
[4] = RP, Merck Supelco Ascentis Express C18, 100 × 2.1 mm, 2 µm, 40 °C, 0.35 mL/min, estimated dead time 0.63 min; A: water + 0.1% formic acid, pH 3; B: acetonitrile + 0.1% formic acid, pH 3; gradient (min/%B) 0/5 2/5 17/99.9 20/99.9
[5] = RP, Merck Supelco Ascentis Express C18, 100 × 2.1 mm, 2 µm, 40 °C, 0.25 mL/min, estimated dead time 0.88 min; A: water + 0.1% formic acid, pH 3; B: acetonitrile + 0.1% formic acid, pH 3; gradient (min/%B) 0/5 2/5 17/99.9 20/99.9
[6] = RP, Merck Supelco Ascentis Express C18, 100 × 2.1 mm, 2 µm, 39 °C, 0.3 mL/min, estimated dead time 0.73 min; A: water + 0.1% formic acid, pH 3; B: acetonitrile + 0.1% formic acid, pH 3; gradient (min/%B) 0/5 2/5 17/99.9 20/99.9
[7] = RP, Merck Supelco Ascentis Express C18, 100 × 2.1 mm, 2 µm, 40 °C, 0.4 mL/min, estimated dead time 0.55 min; A: water + 0.1% formic acid, pH 3; B: acetonitrile + 0.1% formic acid, pH 3; gradient (min/%B) 0/5 2/5 17/99.9 20/99.9; remark: listed apart in the source

LC retention time [1]	LC retention time [2]	LC retention time [3]	LC retention time [4]	LC retention time [5]	LC retention time [6]	LC retention time [7]	SMILES
3.02 min	2.97 min	1.56 min	1.78 min	2.41 min	2.02 min	1.53 min	NC(=O)[C@@H](N)Cc1c[nH]c2ccccc12 [L-TRYPTOPHANAMIDE]
6.08 min	6.08 min	4.62 min	4.87 min	5.55 min	5.22 min	4.59 min	O=C([O-])CCCCCCC(=O)[O-] [SUBERATE]
8.87 min	8.88 min	7.69 min	7.87 min	8.44 min	8.11 min	7.65 min	NC(Cc1cc(I)c(Oc2cc(I)c(O)c(I)c2)c(I)c1)C(=O)O (stereo not given) [THYROXINE]
7.79 min	7.81 min	6.39 min	6.59 min	7.27 min	6.92 min	6.34 min	O=C(O)CCCCCCCCC(=O)O [SEBACATE]
3.96 min	3.98 min	2.16 min	2.47 min	3.32 min	2.81 min	2.15 min	Cn1c(=O)c2[nH]cnc2n(C)c1=O [THEOPHYLLINE]
1.6 min	1.59 min	0.783 min	0.903 min	1.27 min	1.05 min	0.8 min	Cc1c[nH]c(=O)[nH]c1=O [THYMINE]
6.31 min	6.32 min	4.82 min	5.04 min	5.77 min	5.37 min	4.78 min	CC(=O)NC(Cc1ccccc1)C(=O)O (stereo not given) [N-ACETYLPHENYLALANINE]
4.08 min	4.07 min	2.3 min	2.58 min	3.51 min	2.98 min	2.27 min	CSCC1OC(n2cnc3c(N)ncnc32)C(O)C1O (stereo not given) [METHYLTHIOADENOSINE]
8.28 min	8.31 min	6.59 min	6.86 min	7.67 min	7.27 min	6.54 min	O=C(O)/C=C/c1ccccc1 [TRANS-CINNAMATE]

Further lines, the compound ahead of its results:

SMILES	LC retention time [1]	LC retention time [2]	LC retention time [3]	LC retention time [4]	LC retention time [5]	LC retention time [6]	LC retention time [7]
O=C(O)c1ccc(O)c(O)c1 [3,4-DIHYDROXYBENZOATE]	3.06 min	3.05 min	1.53 min	1.76 min	2.44 min	2.06 min	1.52 min
O=C(O)c1cc(=O)c2ccccc2[nH]1 [KYNURENATE]	4.52 min	4.53 min	2.97 min	3.24 min	4 min	3.64 min	2.93 min
Nc1nc2ncc(CNc3ccc(C(=O)NC(CCC(=O)O)C(=O)O)cc3)nc2c(=O)[nH]1 (stereo not given) [FOLATE]	4.69 min	4.66 min	3.58 min	3.76 min	4.27 min	3.99 min	3.58 min
O=CCc1c[nH]c2ccccc12 [INDOLEACETALDEHYDE]	4.97 min	4.21 min	2.15 min	2.45 min	4.45 min	4.07 min	2.17 min
O=C(O)c1ccnc2ccccc12 [4-QUINOLINECARBOXYLATE]	1.6 min	1.57 min	0.773 min	0.88 min	1.26 min	1.04 min	0.763 min
O=c1ccn(C2CC(O)C(CO)O2)c(=O)[nH]1 (stereo not given) [DEOXYURIDINE]	1.42 min	1.41 min	0.697 min	0.81 min	1.12 min	0.953 min	0.68 min
CC(O)(CC(=O)O)CC(=O)O [3-HYDROXYMETHYLGLUTARATE]	1.6 min	1.59 min	0.773 min	0.893 min	1.26 min	1.06 min	0.76 min
O=c1[nH]cnc2c1ncn2C1OC(CO)C(O)C1O (stereo not given) [INOSINE]	1.39 min	1.37 min	0.703 min	0.76 min	1.12 min	0.943 min	0.663 min
O=C(O)c1cc(O)ccc1O [2,5-DIHYDROXYBENZOATE]	4.65 min	4.65 min	2.66 min	3.04 min	4.02 min	3.5 min	2.63 min
O=C(O)Cc1ccccc1O [2-HYDROXYPHENYLACETATE]	4.83 min	4.85 min	2.95 min	3.28 min	4.19 min	3.67 min	2.88 min
N[C@@H](Cc1cc(I)c(Oc2ccc(O)cc2)c(I)c1)C(=O)O [3,5-DIIODO-L-THYRONINE]	7.22 min	7.21 min	6.02 min	6.19 min	6.77 min	6.45 min	5.98 min
O=C(O)Cc1ccc(O)c(O)c1 [3,4-DIHYDROXYPHENYLACETATE]	3.92 min	3.97 min	1.95 min	2.32 min	3.22 min	2.67 min	2.02 min
O=C(O)CCc1ccccc1O [3-(2-HYDROXYPHENYL)PROPANOATE]	12.1 min	6.72 min	5.13 min	5.36 min	6.14 min	5.72 min	5.08 min
O=C(O)c1ccc(=O)[nH]c1 [6-HYDROXYNICOTINATE]	1.59 min	1.59 min	0.787 min	0.887 min	1.26 min	1.06 min	0.773 min
CC12CCC(=O)C=C1CCC1C2C(=O)CC2(C)C1CCC2(O)C(=O)CO (stereo not given) [CORTISONE]	8.07 min	8.09 min	6.73 min	6.91 min	7.56 min	7.21 min	6.69 min
O=C(O)CCCCCCCCCO [10-HYDROXYDECANOATE]	8.02 min	8.03 min	6.58 min	6.8 min	7.49 min	7.1 min	6.55 min
CC(CCC(=O)NCC(=O)O)C1CCC2C3C(O)CC4CC(O)CCC4(C)C3CC(O)C12C (stereo not given) [GLYCOCHOLATE]	9.2 min	9.22 min	8 min	8.17 min	8.75 min	8.42 min	7.96 min
O=C(O)C=Cc1ccc(O)cc1 [4-COUMARATE]	6.25 min	6.26 min	4.68 min	4.94 min	5.68 min	5.3 min	4.64 min
Cc1cc2nc[nH]c2cc1C [5,6 DIMETHYLBENZIMIDAZOLE]	5.17 min	5.16 min	3.79 min	4 min	4.67 min	4.28 min	3.76 min
O=C(O)Cc1cccc(O)c1 [3-HYDROXYPHENYLACETATE]	7 min	7.01 min	5.17 min	5.5 min	6.34 min	5.94 min	5.14 min
N[C@@H](Cc1cc(I)c(O)c(I)c1)C(=O)O [3,5-DIIODO-L-TYROSINE]	5.37 min	5.38 min	4.07 min	4.26 min	4.89 min	4.54 min	4.03 min
